# In publication PMC9603770, “Broad-Spectrum Inhibitors against Class A, B, and C Type β-Lactamases to Block the Hydrolysis against Antibiotics: Kinetics and Structural Characterization” (Microbiology Spectrum, 2022):
# pIC50: −log10 of the molar value. Like-named read-outs stand apart in the source and are kept apart here.
# Experiments:
# Amp-C = biological target: T1, Amp-C (Escherichia coli, UniProt P00811); assay: Steady-state kinetics of antibiotic hydrolysis with inhibitor; assay type: biochemical; settings: inhibitor concentration as per IC50
# T1 construct: made in house; host or cells: E. coli (DH5 and BL21(DE3) named; pET-28a)
# T1 sequence (P00811 20-377): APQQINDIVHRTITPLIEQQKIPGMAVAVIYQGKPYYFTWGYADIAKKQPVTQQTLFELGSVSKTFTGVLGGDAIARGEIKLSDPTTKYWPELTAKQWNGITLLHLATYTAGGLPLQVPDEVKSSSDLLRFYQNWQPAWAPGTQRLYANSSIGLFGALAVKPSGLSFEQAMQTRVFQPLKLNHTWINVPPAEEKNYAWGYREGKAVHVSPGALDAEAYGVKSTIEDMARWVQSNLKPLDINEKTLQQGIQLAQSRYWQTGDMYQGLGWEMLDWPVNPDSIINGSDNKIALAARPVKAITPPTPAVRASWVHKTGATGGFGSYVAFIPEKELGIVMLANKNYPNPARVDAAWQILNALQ
# Procedure: (§1) The enzyme kinetics parameters (Km, and kcat) for all six proteins/enzymes in combination with different antibiotics (cefotaxime, imipenem, and meropenem), were calculated. The concentration of inhibitors, D63, D2148, and D2573, was as per the IC50 value (Fig. 5); the kinetic parameters are listed in Table 8.
# (§2) The steady-state kinetics of all six proteins were determined using the antibiotics:imipenem (Δε295 = −11,500 M^−1 cm^−1), meropenem (Δε297 = −10,940 M^−1 cm^−1), and cefotaxime (Δε264 = −27,250 M^−1 cm^−1). In this study, the D63, D2148, and D2573 inhibitors were tested. Hydrolysis of β-lactam antibiotics was detected by monitoring the variation in absorbance due to cleavage of the β-lactam ring in 50 mM, pH 7.0, phosphate buffer ([40], [41]). For hydrolysis of substrate (cefotaxime, imipenem, and meropenem) kinetics parameters, Km and kcat were calculated by using Michaelis Menten equations (equations 2 and 3). (2) V =Vmax [S]/Km + [S] (3) kcat = Vmax/E where E and S are the enzyme and substrate concentration, Km is the Michaelis-Mentent constant, kcat is the turnover number, and V and Vmax are the initial and maximum velocity of the hydrolysis, respectively.
# CTX-M-15 [1] = biological target: T2, CTX-M-15 (Escherichia coli, UniProt Q9EXV5); assay: as above; assay type: biochemical; settings: inhibitor concentration as per IC50
# T2 construct: made in house; host or cells: E. coli (DH5 and BL21(DE3) named)
# T2 sequence (Q9EXV5 29-291, species assumed): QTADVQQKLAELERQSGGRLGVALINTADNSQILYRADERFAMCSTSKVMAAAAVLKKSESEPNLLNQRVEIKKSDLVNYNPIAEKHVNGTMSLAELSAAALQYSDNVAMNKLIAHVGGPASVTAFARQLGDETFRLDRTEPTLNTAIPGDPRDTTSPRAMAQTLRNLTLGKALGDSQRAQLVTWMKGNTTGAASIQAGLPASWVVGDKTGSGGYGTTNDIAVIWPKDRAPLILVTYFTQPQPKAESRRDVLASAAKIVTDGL
# Procedure: as §1, §2
# KPC-2 = biological target: T3, KPC-2 (Klebsiella pneumoniae, UniProt Q9F663); assay: as above; assay type: biochemical; settings: inhibitor concentration as per IC50
# T3 construct: made in house; host or cells: E. coli (DH5 and BL21(DE3) named; pET-28a)
# T3 sequence (Q9F663 25-293, looked up, species assumed): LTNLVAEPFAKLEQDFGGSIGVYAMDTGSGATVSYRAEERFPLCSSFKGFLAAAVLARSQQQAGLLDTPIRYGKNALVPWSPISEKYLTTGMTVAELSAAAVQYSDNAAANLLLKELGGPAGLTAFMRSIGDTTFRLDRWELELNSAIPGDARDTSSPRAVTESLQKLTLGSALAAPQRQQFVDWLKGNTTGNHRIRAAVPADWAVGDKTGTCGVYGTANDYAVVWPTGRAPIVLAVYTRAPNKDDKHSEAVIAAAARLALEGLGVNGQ
# Procedure: as §1, §2
# NDM-1 = biological target: T4, NDM-1 (Klebsiella pneumoniae, UniProt C7C422); assay: as above; assay type: biochemical; settings: inhibitor concentration as per IC50
# T4 construct: made in house; host or cells: E. coli (DH5 and BL21(DE3) named)
# T4 sequence (C7C422 29-270, looked up, species assumed): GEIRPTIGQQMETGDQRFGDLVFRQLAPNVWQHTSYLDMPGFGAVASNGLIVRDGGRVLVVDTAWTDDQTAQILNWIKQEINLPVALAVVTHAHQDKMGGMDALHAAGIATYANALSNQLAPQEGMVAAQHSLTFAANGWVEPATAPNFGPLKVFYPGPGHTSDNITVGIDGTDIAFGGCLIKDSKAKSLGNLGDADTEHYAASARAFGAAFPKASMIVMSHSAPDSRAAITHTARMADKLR
# Procedure: as §1, §2
# SHV-1 = biological target: T5, SHV-1 (Klebsiella pneumoniae, UniProt P0AD64); assay: as above; assay type: biochemical; settings: inhibitor concentration as per IC50
# T5 construct: made in house; host or cells: E. coli (DH5 and BL21(DE3) named; pET-28a)
# T5 sequence (P0AD64 22-286): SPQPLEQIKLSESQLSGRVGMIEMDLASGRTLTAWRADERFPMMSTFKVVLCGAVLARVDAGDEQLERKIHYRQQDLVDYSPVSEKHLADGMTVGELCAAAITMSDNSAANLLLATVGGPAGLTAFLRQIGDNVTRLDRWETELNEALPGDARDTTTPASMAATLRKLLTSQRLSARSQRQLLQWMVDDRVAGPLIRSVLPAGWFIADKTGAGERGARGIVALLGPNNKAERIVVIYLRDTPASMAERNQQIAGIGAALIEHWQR
# Procedure: as §1, §2
# TEM-1 = biological target: T6, TEM-1 (Escherichia coli, UniProt P62593); assay: as above; assay type: biochemical; settings: inhibitor concentration as per IC50
# T6 construct: made in house; host or cells: E. coli (DH5 and BL21(DE3) named; pET-28a)
# T6 sequence (P62593 24-286 limits assumed): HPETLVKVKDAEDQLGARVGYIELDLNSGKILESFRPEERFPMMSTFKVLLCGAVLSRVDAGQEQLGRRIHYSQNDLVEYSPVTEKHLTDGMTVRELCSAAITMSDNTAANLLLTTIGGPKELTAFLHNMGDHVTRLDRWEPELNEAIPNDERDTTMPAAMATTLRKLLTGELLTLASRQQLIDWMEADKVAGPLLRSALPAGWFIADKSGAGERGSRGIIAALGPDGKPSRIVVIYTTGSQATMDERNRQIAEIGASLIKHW
# Procedure: as §1, §2
# CTX-M-15 [2] = biological target: T2, CTX-M-15; set-up: method as in PMID 20921316; settings: cited from earlier work
# [3] = tested on: E. coli DH5α cells with blaAmp-C clone; assay: microbe, parasite or virus in culture; assay type: cell-based; settings: Escherichia coli
# Procedure: (§3) The blaSHV-1, blaTEM-1, blaKPC-2, and blaAmp-C genes were cloned in the pET-28a vector individually, followed by its transformation in Escherichia coli DH5α cells. The MIC values was determined for clinical strains (AK-10, AK-12, AK-18, NP-6, AK-67, and AK-66) and E. coli DH5α cells with selected clones (blaSHV-1, blaTEM-1, blaKPC-2, blaAmp-C, blaCTX-M-15, and blaNDM-1) carrying vectors individually.
# (§4) In a series of 2-fold dilutions, E. coli cells were given escalating doses of antibiotics from 0 to 512 μg/mL.
# [4] = tested on: E. coli DH5α cells with blaCTX-M-15 clone; assay: microbe, parasite or virus in culture; assay type: cell-based; settings: Escherichia coli
# Procedure: as §3, §4
# [5] = tested on: E. coli DH5α cells with blaKPC-2 clone; assay: microbe, parasite or virus in culture; assay type: cell-based; settings: Escherichia coli
# Procedure: as §3, §4
# [6] = tested on: E. coli DH5α cells with blaNDM-1 clone; assay: microbe, parasite or virus in culture; assay type: cell-based; settings: Escherichia coli
# Procedure: as §3, §4
# [7] = tested on: E. coli DH5α cells with blaSHV-1 clone; assay: microbe, parasite or virus in culture; assay type: cell-based; settings: Escherichia coli
# Procedure: as §3, §4
# [8] = tested on: E. coli DH5α cells with blaTEM-1 clone; assay: microbe, parasite or virus in culture; assay type: cell-based; settings: Escherichia coli
# Procedure: as §3, §4
# clinical strain AK-10 = assay: MIC, microdilution; assay type: cell-based
# Procedure: as §3, §4
# clinical strain AK-18 = assay: MIC, microdilution; assay type: cell-based
# Procedure: as §3, §4
# clinical strain AK-66 = assay: MIC, microdilution; assay type: cell-based
# Procedure: as §3, §4
# clinical strain AK-67 = assay: MIC, microdilution; assay type: cell-based
# Procedure: as §3, §4
# clinical strain NP-6 = assay: MIC, microdilution; assay type: cell-based
# Procedure: as §3, §4
# [9] = clinical strain AK-66, read-out: MIC
compound,measurement,setting,value
"NC(=O)[C@@H]1CC[C@@H]2CN1C(=O)N2OS(=O)(=O)O [Avibactam, reference compound]",Km or Ki,Amp-C; cefotaxime,"1,199 μΜ"
same,kcat,Amp-C; cefotaxime,1.417 S^−1
same,Km or Ki,Amp-C; imipenem,321 μΜ
same,kcat,Amp-C; imipenem,0.861 S^−1
same,Km or Ki,Amp-C; meropenem,"1,442 μΜ"
same,kcat,Amp-C; meropenem,2.213 S^−1
same,Km or Ki,CTX-M-15 [1]; cefotaxime,2047 μΜ
same,kcat,CTX-M-15 [1]; cefotaxime,1.858 S^−1
same,Km or Ki,CTX-M-15 [1]; imipenem,"2,918 μΜ"
same,kcat,CTX-M-15 [1]; imipenem,0.4807 S^−1
same,Km or Ki,CTX-M-15 [1]; meropenem,745.5 μΜ
same,kcat,CTX-M-15 [1]; meropenem,1.566 S^−1
same,Km or Ki,KPC-2; cefotaxime,1299 μΜ
same,kcat,KPC-2; cefotaxime,0.549 S^−1
same,Km or Ki,KPC-2; imipenem,"2,637 μΜ"
same,kcat,KPC-2; imipenem,1.499 S^−1
same,Km or Ki,KPC-2; meropenem,"1,740 μΜ"
same,kcat,KPC-2; meropenem,0.72 S^−1
same,Km or Ki,NDM-1; cefotaxime,212.2 μΜ
same,kcat,NDM-1; cefotaxime,1.036 S^−1
same,Km or Ki,NDM-1; imipenem,615.5 μΜ
same,kcat,NDM-1; imipenem,2.194 S^−1
same,Km or Ki,NDM-1; meropenem,440.9 μΜ
same,kcat,NDM-1; meropenem,1.268 S^−1
same,Km or Ki,SHV-1; cefotaxime,"1,201 μΜ"
same,kcat,SHV-1; cefotaxime,0.6119 S^−1
same,Km or Ki,SHV-1; imipenem,835.4 μΜ
same,kcat,SHV-1; imipenem,0.5531 S^−1
same,Km or Ki,SHV-1; meropenem,532 μΜ
same,kcat,SHV-1; meropenem,0.4803 S^−1
same,Km or Ki,TEM-1; cefotaxime,"1,558 μΜ"
same,kcat,TEM-1; cefotaxime,1.339 S^−1
same,Km or Ki,TEM-1; imipenem,"2,918 μΜ"
same,kcat,TEM-1; imipenem,1.107 S^−1
same,Km or Ki,TEM-1; meropenem,"12,315 μΜ"
same,kcat,TEM-1; meropenem,5.916 S^−1
same,pIC50,CTX-M-15 [2],8.30
CO/N=C(\C(=O)N[C@@H]1C(=O)N2C(C(=O)O)=C(COC(C)=O)CS[C@H]12)c1csc(N)n1 [Cefotaxime],MIC,[3],2 µg/mL
same,MIC,[4],512 µg/mL
same,MIC,[5],2 µg/mL
same,MIC,[6],256 µg/mL
same,MIC,[7],4 µg/mL
same,MIC,[8],2 µg/mL
same,MIC,clinical strain AK-10,1020 µg/mL
same,MIC,clinical strain AK-18,32 µg/mL
same,MIC,clinical strain AK-66,512 µg/mL
same,MIC,clinical strain AK-67,512 µg/mL
same,MIC,clinical strain NP-6,16 µg/mL
CO[C@@]1(NC(=O)Cc2cccs2)C(=O)N2C(C(=O)O)=C(COC(N)=O)CS[C@@H]21 [Cefoxitin],MIC,[3],32 µg/mL
same,MIC,[4],32 µg/mL
same,MIC,[5],32 µg/mL
same,MIC,[6],32 µg/mL
same,MIC,[7],32 µg/mL
same,MIC,[8],32 µg/mL
same,MIC,clinical strain AK-66; [9],64 µg/mL
same,MIC,clinical strain NP-6,64 µg/mL
C[C@@H](O)[C@H]1C(=O)N2C(C(=O)O)=C(SCCN=CN)C[C@H]12 [Imipenem],MIC,[3],16 µg/mL
same,MIC,[4],32 µg/mL
same,MIC,[5],16 µg/mL
same,MIC,[6],512 µg/mL
same,MIC,[7],16 µg/mL
same,MIC,[8],16 µg/mL
same,MIC,clinical strain AK-10,128 µg/mL
same,MIC,clinical strain AK-66; [9],1020 µg/mL
same,MIC,clinical strain NP-6,64 µg/mL
C[C@@H](O)[C@H]1C(=O)N2C(C(=O)O)=C(S[C@@H]3CN[C@H](C(=O)N(C)C)C3)[C@H](C)[C@H]12 [Meropenem],MIC,[3],4 µg/mL
same,MIC,[4],2 µg/mL
same,MIC,[5],2 µg/mL
same,MIC,[6],1020 µg/mL
same,MIC,[7],2 µg/mL
same,MIC,[8],2 µg/mL
same,MIC,clinical strain AK-10,32 µg/mL
same,MIC,clinical strain AK-18,32 µg/mL
same,MIC,clinical strain AK-66; [9],1020 µg/mL
same,MIC,clinical strain NP-6,16 µg/mL
